Measured values as given in the supplement of paper PMC11003180.

Tests used:
Test in all cases: drug sensitivity score (DSS) from 5-dose viability curve (DSS (area-based score, 0 = no response)); higher = more sensitive (stronger viability inhibition); extreme values may be limits of the assay
[1] = system: MDCK wild-type - doxycycline; conditions: doxycycline: none; 72 h
Method in brief: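 Drug sensitivity scores came from Breeze pipeline dose-response fits of CellTiter-Glo luminescence, scaled per plate between vehicle and positive controls. The assay used parental MDCK cells without doxycycline at 2000 cells/well, exposed for 72 h to 528 oncology drugs at five doses (1-10,000 nM).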

[2] = system: MDCK p60AmotL2-inducible + doxycycline (p60AmotL2 expressing); conditions: doxycycline: 10 ng/mL; 72 h
Method in brief: (§1)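 Two MDCK lines, parental and doxycycline-inducible, received doxycycline at 10 ng/mL in the medium before being plated at 2000 cells/well onto a pre-spotted 384-well oncology library of 528 drugs at five doses (1-10,000 nM). Incubation lasted 72 h at 37 °C. Viability was read by CellTiter-Glo luminescence, scaled per plate between vehicle and positive controls, and converted to drug sensitivity scores through Breeze curve fitting.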

[3] = system: MDCK wild-type + doxycycline; conditions: doxycycline: 10 ng/mL; 72 h
Method in brief: as §1

Row | Compound | drug sensitivity score [1] | drug sensitivity score [2] | drug sensitivity score [3]
1 | Cc1cc(Nc2nc(N[C@@H](C)c3ncc(F)cn3)ncc2Cl)[nH]n1 [AZD1480] | 0 | 0.2 | 0
2 | O=C1Cc2cc(C(=O)NC3C[C@H]4CC[C@@H](C3)N4S(=O)(=O)CC3CCN(CCCC(F)(F)F)CC3)c(Cl)cc2N1 (some centres undefined) | 0 | 0 | 0
3 | CCn1c(C(=O)N(C2CC2)C2CC2)cc2c3c(ncn3C)c(Nc3cc(C)n(C)n3)nc21 | 0 | 0 | 0
4 | CCn1c(=O)c(-c2ccc(Cl)cc2Cl)cc2cnc(Nc3ccc(N4CCNCC4)c(F)c3)nc21 [FRAX486] | 1.7 | 2.3 | 0
5 | COC(=O)C[C@](O)(CCCC(C)(C)O)C(=O)O[C@@H]1C(OC)=C[C@]23CCCN2CCc2cc4c(cc2[C@H]13)OCO4 [Omacetaxine] | 33.5 | 33.6 | 32.4
6 | O=C(/C=C\n1cnc(-c2cc(C(F)(F)F)cc(C(F)(F)F)c2)n1)NNc1cnccn1 [Selinexor] | 15.1 | 16.7 | 16.4
7 | Cc1ccc(NS(=O)(=O)c2cccc(C#N)c2)c2[nH]cc(C#N)c12 [E7820] | 14.5 | 20.4 | 19.9
8 | CC(O)c1cc(C(=O)N[C@@H](C)Cn2ccc(-c3ccc(C#N)c(Cl)c3)n2)n[nH]1 (some centres undefined) [ODM-201] | 0 | 0 | 0
9 | CCCCc1nc2cc(/C=C/C(=O)NO)ccc2n1CCN(CC)CC [Pracinostat] | 15 | 17.7 | 15.9
10 | Nc1cc(C(F)(F)F)c(-c2cc(N3CCOCC3)nc(N3CCOCC3)n2)cn1 [Buparlisib] | 5.1 | 6.3 | 7
11 | CCS(=O)(=O)c1cccc(-c2cc(C(=O)NC3CCN(C)CC3)c(C)c3[nH]c4ncc(C)cc4c23)c1 [TAK-901] | 0 | 1.8 | 0.7
12 | CC[C@]12C=CCN3CC[C@@]4(c5cc([C@@]6(C(=O)OC)C[C@@H]7C[C@@H](C(C)(F)F)CN(Cc8c6[nH]c6ccccc86)C7)c(OC)cc5N(C)[C@H]4[C@@](O)(C(=O)OC)[C@@H]1OC(C)=O)[C@@H]32 [Vinflunine] | 4.3 | 3.3 | 3.7
13 | C/C=C1\NC(=O)[C@H]2CSSCC/C=C/[C@H](CC(=O)N[C@H](C(C)C)C(=O)N2)OC(=O)[C@H](C(C)C)NC1=O [Romidepsin] | 18.1 | 24.9 | 19.7
14 | CN(C)CCOc1ccc(/C(=C(/CCCl)c2ccccc2)c2ccccc2)cc1 [Toremifene] | 0 | 4.6 | 3.6
15 | CC(=O)Nc1ccc(C(=O)Nc2ccccc2N)cc1 [Tacedinaline] | 0 | 0 | 0
16 | Cn1cc(CNCC2CCN(c3ncc(C(=O)NO)cn3)CC2)c2ccccc21 [Quisinostat] | 9.8 | 12.7 | 8.6
17 | CC(C)C[C@H](NC(=O)[C@H](Cc1ccccc1)NC(=O)c1cnccn1)B(O)O [Bortezomib] | 26.7 | 25 | 25.9
18 | Nc1nc(F)nc2c1ncn2[C@@H]1O[C@H](CO)[C@@H](O)[C@@H]1O [Fludarabine] | 0 | 0 | 0
19 | CCN(c1cc(-c2ccc(CN3CCOCC3)cc2)cc(C(=O)NCc2c(C)cc(C)[nH]c2=O)c1C)C1CCOCC1 [Tazemetostat] | 0 | 2.1 | 0
20 | C[C@@H](Oc1ccc2[nH]nc(/C=C/c3cnn(CCO)c3)c2c1)c1c(Cl)cncc1Cl | 7.1 | 9.3 | 7.2
21 | CN(c1ncccc1CNc1nc(Nc2ccc3c(c2)CC(=O)N3)ncc1C(F)(F)F)S(C)(=O)=O | 4.4 | 6 | 5.8
22 | Cc1nn(C)c(COc2ccc(N3CCN(S(=O)(=O)N(C)C)CC3)cc2)c1-c1cccc2c(CCCOc3cccc4ccccc34)c(C(=O)O)n(CCN3CCOCC3)c12 | 5.1 | 5.3 | 5.3
23 | CC[C@]1(O)C[C@@H]2CN(CCc3c([nH]c4ccccc34)[C@@](C(=O)OC)(c3cc4c(cc3OC)N(C)[C@H]3[C@@](O)(C(=O)OC)[C@H](OC(C)=O)[C@]5(CC)C=CCN6CC[C@]43[C@@H]65)C2)C1 [Vinblastine] | 25.6 | 25.2 | 24
